pIC50: −log10 of the molar value.

kina/KI, CT50 and IC50 data for twelve compounds are collected here from patent EP0812839A1, “Irreversible HIV protease inhibitors, compositions containing same and process for the preparation thereof” (LG Chemical Limited, priority 1996, dated 1997).

In one series the target is T1, HIV-1 protease (Human immunodeficiency virus type 1 group M subtype B, UniProt P04585).
T1 construct: addition of 2.6nM of HIV-1 protease
As to the kind of experiment: Assay for inhibitory effect on HIV protease (time-dependent inactivation, HPLC readout of oligopeptide substrate cleavage). In kind it is biochemical. As to conditions: second order rate constant; 2.6nM HIV-1 protease; 50mM sodium acetate, pH 0.5; KINSIM/FITSIM program. The protocol:
The inhibitory effect on HIV protease of the compounds of the present invention was determined by the following method.
To a buffer solution comprising 50mM sodium acetate, pH 0.5, 1mM dithiothreitol(DTT), 1mM ethylenediamine-tetraacetate (EDTA), 0.75M ammonium sulfate and 0.1% NP 40(NONIGET P-40; Sigma Chemical Co., U.S.A.) was added a measured amount of a compound selected from Compound Nos. 1 to 12 to prepare a preincubation solution. Inhibition reaction was started with the addition of 2.6nM of HIV-1 protease to the preincubation solution. Each of 10µl sample of the reaction solution taken at a given time interval was added to 80µl of assay solution containing […] of reaction substrate in the same buffer solution as above to assay for the residual enzyme activity. In this context, an oligopeptide consisting of 11 amino acids, i.e., H-His-Lys-Ala-Arg-Val-Leu-Phe-(p-NO2)-(Glu-Ala-Ile-Ser-NH2), was used as a reaction substrate, which oligopeptide was to be cleaved in two by the breakage of amide bond between Leu and Phe-(P-NO2) upon the attack of HIV protease. The reaction rate was determined by subjecting the substrate before the reaction and the product after the reaction to HPLC separation and then measuring the relative amount of the product, using the strong absorbance of (p-NO2)-Phe at 280nm. The amounts of reduction in enzyme activity according to the elapsed time were measured and the natural logarithmic values(ln) of the measured amounts were plotted against time to obtain a linear graph and kobs was calculated from the slope of the linear graph.
The inhibition constant was calculated according to the following equation: (1)/(kobs)=(1)/(kina)+(KI)/(kina)(1)/([I]) [formula] wherein: kobs is a rate constant indicating the rate of reduction in enzyme activity according to the elapsed time under the presence of a given concentration of inhibitor, kina is a rate constant indicating the rate of chemical reaction forming covalent bond between an enzyme and an inhibitor in Michaelis-Menten complex, KI is an inhibition constant indicating the dissociation rate of Michaelis-Menten complex into an enzyme and an inhibitor, and [I] means the inhibitor concentration.
The above equation is applicable to an experiment carried out under the condition in which the concentration of inhibitor is far higher than that of enzyme (Steady State Kinetic). […] The inhibition constants KI and kina and second order rate constant kina/KI were obtained by inputting the value of [E]/([E]+[EI]+[EI']) into KINSIM/FITSIM program. In case that second order rate constant kina/KI is larger than 10^9, it is hard to calculate the exact values by KINSIM/FITSIM program [Williams, J.W. and Morrison, J.F., Methods, Enzymol., 63, 437-466([…]); and Zimmerle, C.T. and Frieden, C., J. Biochem., 258, 381-387(1989)].

The subject of another series is H9 cell or Sup T1 cell. As to the kind of experiment: Cytotoxicity by trypan blue dye exclusion. In kind it is cell-based. As to conditions: concentration that causes death of cells by 50%, 0.1µM to 100µM tested.
The subject of another series is HIV-1. As to the kind of experiment: Anti-viral activity: syncytium formation (Sup T1) or reverse transcriptase assay (H9). In kind it is cell-based. The following applies: Human immunodeficiency virus 1, concentration that inhibits the proliferation of HIV by 50%, H9 or Sup T1 cell lines, 200 TCID50 of HIV-1. The protocol:
The anti-viral activity of the compounds of the present invention was determined by measuring the concentration of the compounds that inhibits the proliferation of HIV by 50%(IC50) through a survey for syncytium formation or reverse transcriptase assay.
1 x 10^5 cells of each of H9(ATCC HTB 176) and Sup T1 cell lines were added to the wells of a 24-well microtiter plate and various concentrations of the compounds of the present invention were added thereto. 200 TCID50(200-fold of 50% tissue culture infection dose) of HIV-1 inoculum and rpmi-1640 medium(Sigma Chemical Co., U.S.A) were added successively to the wells and the plate was incubated at 37°C. In case of Sup T1, the number of syncytium formed was investigated after 3 to 9 days. IC50 of each compound was determined by measuring the concentration of inhibitor that can reduce the number of syncytium by 50% compared with those formed in the same condition without the inhibitor.
In case of H9, three-quarters(3/4) of the culture medium in volume was refreshed every 3 days; and after 9 days, 6ml of the culture fluid was taken and 2.5ml of 30% polyethyleneglycol(PEG, M.W. 6000-8000) and 0.4M NaCl were added thereto. The resulting solution was allowed to stand at 0°C overnight to precipitate virus particles. The solution was centrifuged at 2000rpm for 45 minutes, the supernatant was discarded therefrom and the precipitate was diluted with 20µl of a reverse transcriptase suspension buffer(50mM tris-HCl, pH 7.5, 1mM dithiothreitol, 20% glycerol, 0.25M KCl and 0.25% Triton X-100). The resulting suspension was stored in an Effendorf tube at -70°C until used. A procedure of freezing said virus suspension for 2 minutes in dry ice and thawing same at 37°C for 2 minutes was repeated three times and the resulting suspension was centrifuged at 4°C. The resulting supernatant was used in carrying out the reverse transcriptase assay.
10µl of the said viral suspension was added to a solution of: 10µl of buffer solution(250mM tris-HCl, pH 7.5, 37.5mM MgCl2, 0.25% triton X-100), 1.2µl of 200mM dithiothreitol, 5µl of 100µM oligo(dT)-poly(A)(Boeringer Manheim, 12-18 oligomer), 1µl(1µCi) of ^3H-TTP(Thymidinetri-phosphate) and 23.6µl of water; and the resulting mixture was placed at 37°C. After 1 hour, the mixture was poured onto a WHATMAN DEB1 filter and the filter was washed three times with 5ml of 2 x SSC buffer solution(17.53g of sodium chloride, 8.82g of sodium citrate, pH 7.0, 1 liter of water) for about 10 minutes each time and twice with 95% methanol for 10 seconds. The filter was put onto aluminum foil and dried with an infra-red lamp. The amount of radioactivity was counted using a liquid scintillation counter.

Method for H9 cell or Sup T1 cell: The medium was refreshed every 3 days and the extent of cell proliferation was observed using Hemacytometer according to the trypan blue dye exclusion technique which is well known in the art. CT50(i.e., concentration that causes death of cells by 50%) was determined.

The pIC50 is the negative decadic logarithm of the IC50, by convention in mol/L. Low values mean a high IC50, high ones a low IC50. As for `CC(C)[C@@H](Cc1ccccc1)NC(=O)OC[C@@H]1O[C@@H]1[C@H](Cc1ccccc1)NC(=O)[C@@H](NC(=O)COc1cccc2cnccc12)C(C)(C)S(C)(=O)=O` [Example 10, 4S-[N-(5-isoquinolinyloxymethylenecarbonyl)-β-methanesulfonyl-L-valinyl]amino-(3R,2S)-epoxy-5-phenyl-1-pentyl N-2R-(1-phenyl-3-methylbutyl) carbamate], the kina/KI on HIV-1 protease is recorded as 10^9 - 10^10 min^-1M^-1. The same compound showed a CT50 in the series with H9 cell or Sup T1 cell greater than 10 µM. Further, the pIC50 in the series on HIV-1 is 7.92.

`CC(C)C(NC(=O)OC[C@@H]1O[C@@H]1[C@H](Cc1ccccc1)NC(=O)[C@@H](NC(=O)COc1cccc2cnccc12)C(C)(C)S(C)(=O)=O)C(C)C` [Example 12]: at HIV-1 protease, the kina/KI is on record as 10^9 - 10^10 min^-1M^-1. The CT50 in the series with H9 cell or Sup T1 cell is given as greater than 10 µM. Besides, the pIC50 in the series on HIV-1 was 7.30.

As to `CC(C)[C@H](NC(=O)OC[C@@H]1O[C@@H]1[C@H](Cc1ccccc1)NC(=O)[C@@H](NC(=O)OCc1ccccc1)C(C)(C)S(C)(=O)=O)c1ccccc1` [Example 5], on HIV-1 protease, the kina/KI was 10^9 - 10^10 min^-1M^-1. This compound gave a CT50 in the series on H9 cell or Sup T1 cell greater than 10 µM. This compound also gave a pIC50 in the series on HIV-1 of 7.30.

With `CC(C)C(NC(=O)OC[C@@H]1O[C@@H]1[C@H](Cc1ccccc1)NC(=O)[C@@H](NC(=O)c1ccc2ccccc2n1)C(C)(C)S(C)(=O)=O)C(C)C` [Example 9], the kina/KI on HIV-1 protease is reported as 10^9 - 10^10 min^-1M^-1. For the same compound, in the series with H9 cell or Sup T1 cell, the CT50 was greater than 10 µM. Also, the pIC50 in the series with HIV-1 was 7.10.

Consider `CC(C)[C@H](NC(=O)OC[C@@H]1O[C@@H]1[C@H](Cc1ccccc1)NC(=O)[C@@H](NC(=O)c1ccc2ccccc2n1)C(C)(C)S(C)(=O)=O)c1ccccc1` [Example 8], for which the kina/KI at HIV-1 protease is on record as 10^9 - 10^10 min^-1M^-1. In addition, the CT50 in the series with H9 cell or Sup T1 cell is listed as greater than 10 µM. The pIC50 with HIV-1 is 7.00.

In the case of `CC(C)[C@@H](Cc1ccccc1)NC(=O)OC[C@@H]1O[C@@H]1[C@H](Cc1ccccc1)NC(=O)[C@@H](NC(=O)OCc1ccccc1)C(C)(C)S(C)(=O)=O` [Example 4, 4S-[(N-benzyloxycarbonyl)-β-methanesulfonyl-L-valinyl]amino-(3R,2S)-epoxy-5-phenyl-1-pentyl N-2R-(1-phenyl-3-methylbutyl) carbamate], the kina/KI on HIV-1 protease is listed as 10^9 - 10^10 min^-1M^-1. For the same compound, the CT50 with H9 cell or Sup T1 cell is on record as greater than 10 µM. The same compound showed a pIC50 in the series with HIV-1 of 7.82.

`CC(C)C(NC(=O)OC[C@@H]1O[C@@H]1[C@H](Cc1ccccc1)NC(=O)[C@H](CC(N)=O)NC(=O)c1ccc2ccccc2n1)C(C)C` [Example 3]: the kina/KI on HIV-1 protease is recorded as 10^9 - 10^10 min^-1M^-1. The same compound returned a CT50 with H9 cell or Sup T1 cell greater than 10 µM. Moreover, the pIC50 in the series with HIV-1 was 6.96.

Take `CC(C)[C@@H](Cc1ccccc1)NC(=O)OC[C@@H]1O[C@@H]1[C@H](Cc1ccccc1)NC(=O)[C@@H](NC(=O)c1ccc2ccccc2n1)C(C)(C)S(C)(=O)=O` [Example 7, 4S-[N-(2-quinolinecarbonyl)-β-methanesulfony]-L-valinyl]amino-(3R,2S)-epoxy-5-pheny]-1-pentyl N-2S-(1-phenyl-3-methylbutyl) carbamate]: the kina/KI at HIV-1 protease is recorded as 10^9 - 10^10 min^-1M^-1. In addition, the CT50 in the series on H9 cell or Sup T1 cell is reported as greater than 10 µM. Further, the pIC50 in the series on HIV-1 is 7.70.

As for `CC(C)C(NC(=O)OC[C@@H]1O[C@@H]1[C@H](Cc1ccccc1)NC(=O)[C@@H](NC(=O)OCc1ccccc1)C(C)(C)S(C)(=O)=O)C(C)C` [Example 6], on HIV-1 protease, the kina/KI was 10^9 - 10^10 min^-1M^-1. Also, the CT50 in the series on H9 cell or Sup T1 cell is listed as greater than 10 µM. This compound also had a pIC50 in the series on HIV-1 of 7.30.

For the compound `CC(C)[C@H](NC(=O)OC[C@@H]1O[C@@H]1[C@H](Cc1ccccc1)NC(=O)[C@H](CC(N)=O)NC(=O)c1ccc2ccccc2n1)c1ccccc1` [Example 2], the kina/KI on HIV-1 protease is on record as 10^9 - 10^10 min^-1M^-1. The same compound yielded a CT50 in the series on H9 cell or Sup T1 cell greater than 10 µM. Also, in the series with HIV-1, the pIC50 is 6.89.

As for `CC(C)[C@@H](Cc1ccccc1)NC(=O)OC[C@@H]1O[C@@H]1[C@H](Cc1ccccc1)NC(=O)[C@H](CC(N)=O)NC(=O)c1ccc2ccccc2n1` [Example 1, 4S-[N-(2-quinolinecarbonyl)-L-asparaginyl]amino-(3R,2S)-epoxy-5-phenylpentyl N-2R-(1-phenyl-3-methylbutyl) carbamate], the kina/KI on HIV-1 protease is reported as 10^9 - 10^10 min^-1M^-1. This compound came in with a CT50 with H9 cell or Sup T1 cell greater than 10 µM. Also, the pIC50 with HIV-1 is 6.90.

Take `CC(C)[C@H](NC(=O)OC[C@@H]1O[C@@H]1[C@H](Cc1ccccc1)NC(=O)[C@@H](NC(=O)COc1cccc2cnccc12)C(C)(C)S(C)(=O)=O)c1ccccc1` [Example 11]: the kina/KI at HIV-1 protease is reported as 10^9 - 10^10 min^-1M^-1. This compound also gave a CT50 with H9 cell or Sup T1 cell greater than 10 µM. The negative logarithm of the IC50 (pIC50) in the series with HIV-1 is 7.82.
